Measurements: article PMC8748870, “Topoisomerase I (TOP1) dynamics: conformational transition from open to closed states” (Nature Communications, 2022)

Biological target: T1, HsTOP1 (Homo sapiens, UniProt P11387)
T1 construct: gene TOP1; recombinant human TOP1, wild type, purified from baculovirus expression
T1 sequence (P11387 2-765): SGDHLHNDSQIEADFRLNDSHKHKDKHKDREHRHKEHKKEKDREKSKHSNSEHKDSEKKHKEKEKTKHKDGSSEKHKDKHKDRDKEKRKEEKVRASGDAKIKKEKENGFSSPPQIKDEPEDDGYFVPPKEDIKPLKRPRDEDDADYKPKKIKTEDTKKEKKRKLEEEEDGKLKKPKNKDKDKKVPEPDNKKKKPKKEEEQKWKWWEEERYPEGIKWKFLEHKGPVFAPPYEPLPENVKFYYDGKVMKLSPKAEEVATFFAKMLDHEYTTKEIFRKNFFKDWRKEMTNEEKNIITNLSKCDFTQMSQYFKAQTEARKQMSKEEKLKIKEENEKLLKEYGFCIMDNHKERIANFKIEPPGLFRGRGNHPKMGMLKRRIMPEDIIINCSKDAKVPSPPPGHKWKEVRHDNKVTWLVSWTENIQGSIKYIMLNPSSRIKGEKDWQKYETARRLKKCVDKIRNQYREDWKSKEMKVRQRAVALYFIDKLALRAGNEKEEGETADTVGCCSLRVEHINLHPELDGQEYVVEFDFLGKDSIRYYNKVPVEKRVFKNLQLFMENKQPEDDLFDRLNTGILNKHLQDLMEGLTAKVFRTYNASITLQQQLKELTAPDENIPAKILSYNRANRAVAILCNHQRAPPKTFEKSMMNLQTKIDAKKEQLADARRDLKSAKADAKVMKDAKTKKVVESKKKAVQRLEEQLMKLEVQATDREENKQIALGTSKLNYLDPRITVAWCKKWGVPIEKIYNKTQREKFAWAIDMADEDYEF
Test: […]-labelled oligonucleotide cleavage assay, denaturing PAGE
Format: biochemical
Details: traps TOP1-DNA cleavage complex; 30-bp DNA, pH 7.5, 5 mM Mg2+, 50 mM KCl, 25 °C

`CC[C@@]1(O)C(=O)OCc2c1cc1n(c2=O)Cc2cc3ccccc3nc2-1` [CPT, camptothecin] was tested, and the CPT-dependent cleavage bands was “incubation of HsTOP1 induced TOP1ccs exclusively in the presence of CPT”.
